Publication PMC9687610, “Adenosine-Mimicking Derivatives of 3-Aminopyrazine-2-Carboxamide: Towards Inhibitors of Prolyl-tRNA Synthetase with Antimycobacterial Activity” (Biomolecules, 2022)
≈ marks a conversion by molar mass, not a printed value. Where two headings read alike, the source gives them in different places.

Legend:
[1] = tested on: Candida krusei CCM 8271 (ATCC 6258); test: Antifungal microdilution broth (EUCAST), CK; assay type: cell-based; details: Pichia kudriavzevii; read after 24 h; read-out: CK MIC
[2] = tested on: Mycobacterium smegmatis DSM 43465 (ATCC 607); test: Microplate Alamar Blue Assay (MABA), M. smegmatis; assay type: cell-based; details: Mycolicibacterium smegmatis; MABA, resazurin after 48 h; read-out: M. smegmatis MIC
[3] = tested on: Staphylococcus aureus subsp. aureus CCM 4223 (ATCC 29213); test: Antibacterial microdilution broth (EUCAST), SA; assay type: cell-based; details: Staphylococcus aureus; read after 24 h; read-out: SA MIC
[4] = tested on: Candida tropicalis CCM 8264 (ATCC 750); test: Antifungal microdilution broth (EUCAST), CT; assay type: cell-based; details: Candida tropicalis; read after 24 h; read-out: CT MIC
[5] = tested on: M. aurum DSM 43999 (ATCC 23366); test: Microplate Alamar Blue Assay (MABA), M. aurum; assay type: cell-based; details: Mycolicibacterium aurum; MABA, resazurin after 72 h; read-out: M. aurum MIC
[6] = tested on: Acinetobacter baumannii DSM 30007 (ATCC 19606); test: Antibacterial microdilution broth (EUCAST), ACI; assay type: cell-based; details: Acinetobacter baumannii; read after 24 h; read-out: ACI MIC
[7] = tested on: Candida parapsilosis CCM 8260 (ATCC 22019); test: Antifungal microdilution broth (EUCAST), CP; assay type: cell-based; details: Lodderomyces parapsilosis; read after 24 h; read-out: CP MIC
[8] = tested on: Aspergillus fumigatus ATCC 204305; test: Antifungal microdilution broth (EUCAST), AF; assay type: cell-based; details: Aspergillus fumigatus, ATCC204305; read after 24 h; read-out: AF MIC
[9] = tested on: Staphylococcus epidermidis CCM 4418 (ATCC 12228); test: Antibacterial microdilution broth (EUCAST), SE; assay type: cell-based; details: read after 24 h, read-out: SE MIC
[10] = tested on: Escherichia coli CCM 3954 (ATCC 25922); test: Antibacterial microdilution broth (EUCAST), EC; assay type: cell-based; details: Escherichia coli; read after 24 h; read-out: EC MIC
[11] = tested on: Lichtheimia corymbifera CCM 8077; test: Antifungal microdilution broth (EUCAST), LC; assay type: cell-based; details: Lichtheimia corymbifera, CCM8077; read after 24 h; read-out: LC MIC
[12] = tested on: Aspergillus flavus CCM 8363; test: Antifungal microdilution broth (EUCAST), AFla; assay type: cell-based; details: Aspergillus flavus, CCM8363; read after 24 h; read-out: AFla MIC
[13] = tested on: Trichophyton interdigitale CCM 8377 (ATCC 9533); test: Antifungal microdilution broth (EUCAST), TI; assay type: cell-based; details: Trichophyton interdigitale, 72 h, read-out: TI MIC
[14] = tested on: Pseudomonas aeruginosa CCM 3955 (ATCC 27853); test: Antibacterial microdilution broth (EUCAST), PA; assay type: cell-based; details: Pseudomonas aeruginosa; read after 24 h; read-out: PA MIC
[15] = tested on: HepG2 human hepatocellular carcinoma cells; test: In vitro HepG2 cytotoxicity (CellTiter 96); details: * limit = highest evaluated concentration (precipitation in medium), ** over the 1000 µM limit
[16] = tested on: Klebsiella pneumoniae CCM 4415 (ATCC 10031); test: Antibacterial microdilution broth (EUCAST), KP; details: read after 24 h
[17] = tested on: Enterococcus faecalis CCM 4224 (ATCC 29212); test: Antibacterial microdilution broth (EUCAST), EF; assay type: cell-based; details: Enterococcus faecalis; read after 24 h; read-out: EF MIC
[18] = tested on: Staphylococcus aureus subsp. aureus methicillin-resistant (MRSA) CCM 4750 (ATCC 43300); test: Antibacterial microdilution broth (EUCAST), MRSA; assay type: cell-based; details: Staphylococcus aureus; read after 24 h; read-out: MRSA MIC
[19] = tested on: Mycobacterium tuberculosis H37Ra ITM-M006710 (ATCC 9431); test: Microplate Alamar Blue Assay (MABA), Mtb H37Ra; assay type: cell-based; details: Mycobacterium tuberculosis, 120 h, pH 6.6, MABA, Middlebrook 7H9 broth pH 6.6, resazurin after 120 h; read-out: Mtb H37Ra MIC
[20] = tested on: Candida albicans CCM 8320 (ATCC 24433); test: Antifungal microdilution broth (EUCAST), CA; assay type: cell-based; details: Candida albicans; read after 24 h; read-out: CA MIC
[21] = Homo sapiens, HepG2, 24 h, read-out: HepG2 IC50, 24 h incubation

Q: Which results are given for CCCC(=O)Nc1nccnc1C(N)=O [Compound 29]?
A: MIC [1]: > 500 µM; MIC [2]: ≥ 500 µg/mL; MIC [3]: > 500 µM; MIC [4]: > 500 µM; MIC [5]: ≥ 500 µg/mL; MIC [6]: > 500 µM; MIC [7]: > 500 µM; MIC [8]: > 500 µM; MIC [9]: > 500 µM; MIC [10]: > 500 µM; melting point: 158.7 to 159.5 °C; MIC [11]: > 500 µM; MIC [12]: > 500 µM; MIC [13]: > 500 µM; MIC [14]: > 500 µM; IC50 [15, 21]: > 1000 µM; KP MIC [16]: > 500 µM; MIC [17]: > 500 µM; MIC [18]: > 500 µM; MIC [19]: ≥ 500 µg/mL; MIC [20]: > 500 µM

Q: Which MIC [1] does the source give for CCCCCC(=O)Nc1nccnc1C(N)=O [Compound 30] here?
A: > 500 µM

Q: What about the MIC [2] of the same compound?
A: ≥ 500 µg/mL

Q: What about the MIC [3] of the same compound?
A: > 500 µM

Q: And the MIC [4]?
A: > 500 µM

Q: And the MIC [5]?
A: ≥ 250 µg/mL

Q: What about the MIC [6] of the same compound?
A: > 500 µM

Q: And the MIC [7]?
A: > 500 µM

Q: And the MIC [8]?
A: > 500 µM

Q: And the MIC [9]?
A: > 500 µM

Q: And the MIC [10]?
A: > 500 µM

Q: And the melting point?
A: 138.4 to 139 °C

Q: And the MIC [11]?
A: > 500 µM

Q: What about the MIC [12] of the same compound?
A: > 500 µM

Q: What about the MIC [13] of the same compound?
A: > 500 µM

Q: And the MIC [14]?
A: > 500 µM

Q: What about the IC50 [15, 21] of the same compound?
A: 560 µM

Q: And the “KP MIC” value [16]?
A: > 500 µM

Q: What about the MIC [17] of the same compound?
A: > 500 µM

Q: And the MIC [18]?
A: > 500 µM

Q: What about the MIC [19] of the same compound?
A: ≥ 500 µg/mL

Q: What about the MIC [20] of the same compound?
A: > 500 µM

Q: For CCCCCCC(=O)Nc1nccnc1C(N)=O [Compound 31], which MIC [1] is on record?
A: > 125 µM

Q: And the MIC [2]?
A: ≥ 500 µg/mL

Q: What about the MIC [3] of the same compound?
A: > 125 µM

Q: And the MIC [4]?
A: > 125 µM

Q: What about the MIC [5] of the same compound?
A: ≥ 500 µg/mL

Q: And the MIC [6]?
A: > 125 µM

Q: And the MIC [7]?
A: > 125 µM

Q: And the MIC [8]?
A: > 125 µM

Q: What about the MIC [9] of the same compound?
A: > 125 µM

Q: And the MIC [10]?
A: > 125 µM

Q: And the melting point?
A: 131.5 to 132.1 °C

Q: And the MIC [11]?
A: > 125 µM

Q: And the MIC [12]?
A: > 125 µM

Q: And the MIC [13]?
A: > 125 µM

Q: And the MIC [14]?
A: > 125 µM

Q: What about the IC50 [15, 21] of the same compound?
A: > 250 µM

Q: What about the “KP MIC” value [16] of the same compound?
A: > 125 µM

Q: What about the MIC [17] of the same compound?
A: > 125 µM

Q: And the MIC [18]?
A: > 125 µM

Q: What about the MIC [19] of the same compound?
A: ≥ 500 µg/mL

Q: What about the MIC [20] of the same compound?
A: > 125 µM

Q: With CCCCCCCC(=O)Nc1nccnc1C(N)=O [Compound 32] as the compound, how does the MIC [1] read?
A: > 250 µM

Q: And the MIC [2]?
A: 250 µg/mL (≈ 946 µM)

Q: What about the MIC [3] of the same compound?
A: > 250 µM

Q: And the MIC [4]?
A: > 250 µM

Q: What about the MIC [5] of the same compound?
A: 125 µg/mL (≈ 473 µM)

Q: And the MIC [6]?
A: > 250 µM

Q: And the MIC [7]?
A: > 250 µM

Q: What about the MIC [8] of the same compound?
A: > 250 µM

Q: What about the MIC [9] of the same compound?
A: > 250 µM

Q: And the MIC [10]?
A: > 250 µM

Q: And the melting point?
A: 127.9 to 129.3 °C

Q: What about the MIC [11] of the same compound?
A: > 250 µM

Q: And the MIC [12]?
A: > 250 µM

Q: What about the MIC [13] of the same compound?
A: > 250 µM

Q: What about the MIC [14] of the same compound?
A: > 250 µM

Q: What about the IC50 [15, 21] of the same compound?
A: > 1000 µM

Q: What about the “KP MIC” value [16] of the same compound?
A: > 250 µM

Q: What about the MIC [17] of the same compound?
A: > 250 µM

Q: What about the MIC [18] of the same compound?
A: > 250 µM

Q: What about the MIC [19] of the same compound?
A: 250 µg/mL (≈ 946 µM)

Q: And the MIC [20]?
A: > 250 µM

Q: What does the source list for CNC(=O)c1nccnc1NC(=O)c1ccc(C)cc1 [Compound 33]?
A: MIC [1]: > 500 µM; MIC [2]: ≥ 500 µg/mL; MIC [3]: > 500 µM; MIC [4]: > 500 µM; MIC [5]: 125 µg/mL (≈ 462 µM); MIC [6]: > 500 µM; MIC [7]: > 500 µM; MIC [8]: > 500 µM; MIC [9]: > 500 µM; MIC [10]: > 500 µM; melting point: 178.4 to 179.5 °C; MIC [11]: > 500 µM; MIC [12]: > 500 µM; MIC [13]: > 500 µM; MIC [14]: > 500 µM; IC50 [15, 21]: 765 µM; IC50 ([15]; read-out: HepG2 IC50, 24 h incubation): 764 µM; KP MIC [16]: > 500 µM; MIC [17]: > 500 µM; MIC [18]: > 500 µM; MIC [19]: 250 µg/mL (≈ 925 µM); MIC [20]: > 500 µM

Q: Which MIC [1] does the source give for CNC(=O)c1nccnc1NC(=O)c1ccc(Cl)cc1 [Compound 34] here?
A: > 125 µM

Q: What about the MIC [2] of the same compound?
A: ≥ 500 µg/mL

Q: And the MIC [3]?
A: > 125 µM

Q: And the MIC [4]?
A: > 125 µM

Q: And the MIC [5]?
A: ≥ 500 µg/mL

Q: What about the MIC [6] of the same compound?
A: > 125 µM

Q: What about the MIC [7] of the same compound?
A: > 125 µM

Q: And the MIC [8]?
A: > 125 µM

Q: What about the MIC [9] of the same compound?
A: > 125 µM

Q: And the MIC [10]?
A: > 125 µM

Q: And the melting point?
A: 204.2 to 205.1 °C

Q: And the MIC [11]?
A: > 125 µM

Q: And the MIC [12]?
A: > 125 µM

Q: What about the MIC [13] of the same compound?
A: > 125 µM

Q: What about the MIC [14] of the same compound?
A: > 125 µM

Q: And the IC50 [15, 21]?
A: > 100 µM

Q: And the “KP MIC” value [16]?
A: > 125 µM

Q: What about the MIC [17] of the same compound?
A: > 125 µM

Q: And the MIC [18]?
A: > 125 µM

Q: What about the MIC [19] of the same compound?
A: ≥ 500 µg/mL

Q: What about the MIC [20] of the same compound?
A: > 125 µM
